Measured values reported in publication PMC6005341, “Identification of “sarsasapogenin-aglyconed” timosaponins as novel Aβ-lowering modulators of amyloid precursor protein processing” (Chemical Science, 2016).

Columns and labels:
[1] = system: Aβ42 levels in rat primary cortical neuron culture; assay: Aβ42 in conditioned medium of rat primary cortical neuron culture, 5-day incubation; assay type: cell-based; conditions: n = 3
Description: (§1) Reagents: All reagents were of analytical grade (purity > 98%) and were purchased from Sigma-Aldrich Chemical Co. unless otherwise specified. SSG (1) was purchased from Wako Pure Chemical Industries, Ltd. Diosgenin (6), Dioscin (9), Polyphyllin D (10), Timosaponin BI (22) and Timosaponin BII (23) were purchased from Chengdu Must Bio-Technology Co.
(§2) Ltd. Yamogenin (7) was bought from Ambinter c/o Greenpharma while Smilagenin (24) was bought from Steraloids Inc. Substances dissolved in DMSO as stock solutions. Cell culture medium constituents were purchased from Life Technologies, Inc.
(§3) Cell culture: Neuro-2A cells expressing Swedish mutants of APP (N2A-APPswe provided by Prof. Yifan Han, The Hong Kong Polytechnic University)1 was cultured in minimal essential medium with 2 mM glutamine, 2 mM pyruvate and 10% fetal bovine serum. Cells were seeded at 6-well plate at 1×106 cells/mL and grown for two days until confluence. The medium was replaced and the testing compounds were added at indicated concentrations for […]
Primary cortical neurons were prepared from embryonic day 17 Sprague-Dawley rats (Laboratory Animal Unit, The University of Hong Kong). Cerebral cortices were mechanically dissociated in complete medium (MEM with 18 mM glucose; 2 mM L-glutamine; 5% FBS; hormone cocktail, penicillin (50 U/mL), streptomycin (50 μg/mL), and […]). Cells were seeded onto six-well plate (0.5 × 10^6 cells/well) pre-coated with poly-L-lysine. […]
rabbit antibody (Millipore). The immunoreactivities were detected using enhanced chemiluminescence reagents (GE Health care). […]
Aβ ELISA: Aβ concentrations in conditioned medium were assayed using ELISA kits for human Aβ40, human Aβ42 (ultrasensitive) (Invitrogen), human Aβ38 (MyBioSource) (in N2A-APPswe cells) or Wako High Sensitive Aβx-42 ELISA kit (in Rat primary cortical neuron culture). The viability of the N2A-APPswe and Primary cortical neurons were determined by MTT and LDH release assays, respectively. […]

[2] = system: APP processing in N2A-APPswe cells; assay: Immunoblot of APP processing in N2A-APPswe cells; assay type: cell-based
Description: as §1, §2
as §3, with “confluence.” for “confluence. The medium was replaced and the testing compounds were added at indicated concentrations for”
Immunoblot analysis: Cells were washed with phosphate buffered saline and lysed with buffer containing 50 mM Tris-Cl, pH 7.4, 150 mM NaCl, 1% Triton X-100 supplemented with protease inhibitors. Equal amount of proteins (30 µg) was resolved by 16.5% Tris-tricine gels and then transferred to nitrocellulose membrane with 0.2 µm pore size. For detection of secreted Aβ, sAPPα and  sAPPβ, cells were treated with the timosaponins for 8 h in complete medium which were then replaced with medium containing 0.1% FBS. After further incubation of 16 h, 50 µL of the conditioned medium was mixed with SDS sample buffer and resolved accordingly. The membrane was blocked with Tris-buffered saline containing 0.1% Tween 20 and 3% BSA and then incubated with primary antibodies at 4 °C overnight, followed with appropriate secondary antibodies for 2 h. The primary antibodies were: APP c-terminal rabbit antibody (1:5000; Merck Bioscience) for detection of full length APP and APP-CTFs, mouse monoclonal 6E10 (Covance) for secreted Aβ and sAPPα,  mouse monoclonal 6A1 (IBL) for sAPPβswe, ADAM-10 rabbit antibody (Millipore) and BACE1

SMILES	Aβ42 reduction (%) ([1]; 5 μM)	sAPPα levels ([2]; 100 μM)	α-CTF and β-CTF expression ([2]; 100 μM)	Aβ42 reduction (%) ([1]; 10 μM)	expression of ADAM-10 [2]	expression of the β-secretase BACE1 [2]	α-secretase-cleaved CTF (C-83) and secreted APPα ([2]; 10 μM)	expression of full length APP ([2]; 18 h)	levels of β-secretase-cleaved CTF (C-99) and secreted APPβ ([2]; concentration-dependent)
C[C@H]1CC[C@@]2(OC1)O[C@H]1C[C@H]3[C@@H]4CC[C@@H]5C[C@@H](O)CC[C@]5(C)[C@H]4CC[C@]3(C)[C@H]1[C@@H]2C [SSG (1), sarsasapogenin]	25 ± 4	marked increase	increased	–	–	–	–	–	–
C[C@H]1CC[C@@]2(OC1)O[C@H]1C[C@H]3[C@@H]4CC[C@@H]5C[C@@H](O[C@@H]6O[C@H](CO)[C@H](O)[C@H](O)[C@H]6O)CC[C@]5(C)[C@H]4CC[C@]3(C)[C@H]1[C@@H]2C [TAI (3), timosaponin A I]	–	–	–	28 ± 5	–	–	–	–	–
C[C@H]1CC[C@@]2(OC1)O[C@H]1C[C@H]3[C@@H]4CC[C@@H]5C[C@@H](O[C@@H]6O[C@H](CO)[C@H](O)[C@H](O)[C@H]6O[C@@H]6O[C@H](CO)[C@@H](O)[C@H](O)[C@H]6O)CC[C@]5(C)[C@H]4CC[C@]3(C)[C@H]1[C@@H]2C [TAIII (2), timosaponin A III]	42 ± 9	–	–	–	did not alter	did not affect	increased	did not elicit a change	decreased
